Data published in patent EP2058306A1, “Heteroaryl-substituted 2-pyridinyl-methylamine derivatives” (SCHWARZ PHARMA AG, priority 2007, dated 2009).
Read-outs that look alike come from different tables or passages of the source.

What was measured:
dopamine D1 receptor = biological target: T1, dopamine D1 receptor (Sus scrofa, UniProt P50130); assay: radioligand binding assay, dopamine D1 receptor, [3H]SCH 23390; conditions: porcine striatum membranes, mean of two to five experiments in triplicate, read-out: Ki D1
T1 construct: native membrane preparations from porcine striatum; from tissue; host or cells: porcine striatum
Description: (§1) Biological activity of the compounds has been determined in radioligand binding assays. These experiments have been done according to methods which are described in literature (Hübner, H. et al., J. Med. Chem. (2000), 43, 7562). For the determination of binding affinity to the receptors of the dopamine D2 family membranes were established carrying the human D2long, D2short, D3 or D4.4 receptor subtype stably expressed in Chinese hamster ovary cell lines. In principle, the binding experiments started when incubating an appropriate amount of membrane with the radioligand [^3H]spiperone and the particular test compounds used in a wide range of different concentrations from subnanomolar up to micromolar ones. In the same way, binding affinities of the test compounds to the dopamine D1 receptor were determined when using native membrane preparations from porcine striatum and the D1 selective radioligand [^3H]SCH 23390.
(§2) The results of the binding experiments are summarized in Table 1 as mean values of two to five individual experiments each done in triplicate and expressed as Ki values in nM.

human D2long, D2short = human D2long, D2short (Homo sapiens, UniProt P14416); assay: biochemical; format: binding; conditions: CHO cell membranes, [3H]spiperone; mean of two to five experiments in triplicate; read-out: Ki D2
Description: as §1, with “These” for “Biological activity of the compounds has been determined in radioligand binding assays. These”, “ones.” for “ones. In the same way, binding affinities of the test compounds to the dopamine D1 receptor were determined when using native membrane preparations from porcine striatum and the D1 selective radioligand [^3H]SCH 23390.”

human D3 = human D3 (Homo sapiens, UniProt P35462); assay: radioligand binding assay, dopamine D3 receptor, [3H]spiperone; conditions: CHO cell membranes, mean of two to five experiments in triplicate, read-out: Ki D3
Description: as §1, with “These” for “Biological activity of the compounds has been determined in radioligand binding assays. These”, “ones.” for “ones. In the same way, binding affinities of the test compounds to the dopamine D1 receptor were determined when using native membrane preparations from porcine striatum and the D1 selective radioligand [^3H]SCH 23390.”

human D4.4 = biological target: T2, human D4.4 (Homo sapiens, UniProt P21917); assay: radioligand binding assay, dopamine D4.4 receptor, [3H]spiperone; conditions: CHO cell membranes, mean of two to five experiments in triplicate, read-out: Ki D4.4
T2 sequence (P21917 1-419): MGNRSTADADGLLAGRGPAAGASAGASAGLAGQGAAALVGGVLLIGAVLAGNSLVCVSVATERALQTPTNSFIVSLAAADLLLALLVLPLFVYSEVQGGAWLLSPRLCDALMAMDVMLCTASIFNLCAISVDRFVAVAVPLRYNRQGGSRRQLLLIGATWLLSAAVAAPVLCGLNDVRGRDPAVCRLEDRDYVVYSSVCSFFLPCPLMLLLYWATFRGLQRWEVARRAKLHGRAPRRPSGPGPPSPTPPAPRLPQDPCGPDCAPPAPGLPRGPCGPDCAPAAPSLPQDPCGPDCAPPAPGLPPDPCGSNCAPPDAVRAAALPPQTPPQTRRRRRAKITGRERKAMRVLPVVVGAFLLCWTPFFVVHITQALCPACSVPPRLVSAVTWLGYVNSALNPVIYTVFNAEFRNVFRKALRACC
Description: as §1, §2

5-HT1A = biological target: T3, 5-HT1A (Sus scrofa, UniProt A0A4X1UTF5); assay: radioligand binding assay, serotonin 5-HT1A receptor, [3H]WAY 100635; conditions: porcine cortex membranes, mean of two to five experiments in triplicate, read-out: Ki 5-HT1a
T3 construct: membrane preparations from porcine cortex; from tissue; host or cells: porcine cortex
T3 sequence (A0A4X1UTF5 1-422): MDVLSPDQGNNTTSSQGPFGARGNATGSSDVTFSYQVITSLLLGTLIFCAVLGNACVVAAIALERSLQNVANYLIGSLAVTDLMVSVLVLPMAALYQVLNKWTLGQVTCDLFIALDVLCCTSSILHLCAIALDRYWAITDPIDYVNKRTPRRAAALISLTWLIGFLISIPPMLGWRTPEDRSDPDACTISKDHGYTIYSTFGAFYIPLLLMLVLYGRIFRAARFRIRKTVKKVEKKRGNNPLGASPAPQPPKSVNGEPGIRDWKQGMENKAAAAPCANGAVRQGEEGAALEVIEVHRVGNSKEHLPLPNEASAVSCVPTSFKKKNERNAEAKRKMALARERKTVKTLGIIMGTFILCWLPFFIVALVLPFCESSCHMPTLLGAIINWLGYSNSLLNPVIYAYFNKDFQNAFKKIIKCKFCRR
Description: (§3) The investigation of receptor binding to the serotonin and adrenergic receptors was done according to a published procedure (Heindl, C. et al., Tetrahedron: Asymmetry (2003), 14, 3141-3152). In detail, for the determination of the binding properties to serotonin receptors membrane preparations from porcine cortex was incubated with the 5-HT1A selective radioligand [^3H]WAY 100635 or with the 5-HT2 selective compound [^3H]ketanserin. The measurement of alpha-1 and alpha-2 receptor binding was achieved when utilizing porcine cortical membranes and the selective radioligands [^3H]prazosin (for alpha-1) and [^3H]RX821002 in an assay similar to that described above.
as §2

5-HT2 = biological target: T4, 5-HT2 (Sus scrofa, UniProt P50129); assay: radioligand binding assay, serotonin 5-HT2 receptor, [3H]ketanserin; design: species or system porcine
T4 construct: membrane preparations from porcine cortex; from tissue; host or cells: porcine cortex

alpha-1 = assay: radioligand binding assay, adrenergic alpha-1 receptor, [3H]prazosin; conditions: porcine cortical membranes, mean of two to five experiments in triplicate, read-out: Ki alpha1
Description: as §3, §2

[1] = porcine cortex membranes, [3H]ketanserin, mean of two to five experiments in triplicate, read-out: Ki 5-HT2

T4 sequence (P50129 whole entry): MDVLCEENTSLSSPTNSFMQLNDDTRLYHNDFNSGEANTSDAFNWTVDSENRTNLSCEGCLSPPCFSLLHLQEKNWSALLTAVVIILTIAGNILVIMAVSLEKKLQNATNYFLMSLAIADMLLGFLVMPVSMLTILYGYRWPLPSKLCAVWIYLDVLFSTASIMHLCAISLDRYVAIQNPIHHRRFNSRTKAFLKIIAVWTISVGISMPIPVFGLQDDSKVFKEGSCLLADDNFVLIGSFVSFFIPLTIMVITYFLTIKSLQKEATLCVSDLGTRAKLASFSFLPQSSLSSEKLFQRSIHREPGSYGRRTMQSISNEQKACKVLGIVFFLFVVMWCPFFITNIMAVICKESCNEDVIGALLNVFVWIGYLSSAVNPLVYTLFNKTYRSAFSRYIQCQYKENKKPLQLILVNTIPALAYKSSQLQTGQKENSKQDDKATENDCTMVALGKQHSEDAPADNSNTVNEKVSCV
Chain of human D3 (P35462 whole entry): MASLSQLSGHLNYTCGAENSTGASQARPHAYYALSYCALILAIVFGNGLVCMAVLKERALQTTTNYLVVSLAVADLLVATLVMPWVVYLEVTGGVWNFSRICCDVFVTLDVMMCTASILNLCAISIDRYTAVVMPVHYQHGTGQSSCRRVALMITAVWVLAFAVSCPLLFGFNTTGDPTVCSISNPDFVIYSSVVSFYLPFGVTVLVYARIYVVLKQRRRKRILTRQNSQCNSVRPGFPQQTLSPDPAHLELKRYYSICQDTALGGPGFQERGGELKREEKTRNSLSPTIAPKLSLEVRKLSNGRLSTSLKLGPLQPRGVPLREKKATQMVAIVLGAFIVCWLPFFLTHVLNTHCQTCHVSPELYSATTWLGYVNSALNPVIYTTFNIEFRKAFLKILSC
Chain of human D2long, D2short (P14416 whole entry): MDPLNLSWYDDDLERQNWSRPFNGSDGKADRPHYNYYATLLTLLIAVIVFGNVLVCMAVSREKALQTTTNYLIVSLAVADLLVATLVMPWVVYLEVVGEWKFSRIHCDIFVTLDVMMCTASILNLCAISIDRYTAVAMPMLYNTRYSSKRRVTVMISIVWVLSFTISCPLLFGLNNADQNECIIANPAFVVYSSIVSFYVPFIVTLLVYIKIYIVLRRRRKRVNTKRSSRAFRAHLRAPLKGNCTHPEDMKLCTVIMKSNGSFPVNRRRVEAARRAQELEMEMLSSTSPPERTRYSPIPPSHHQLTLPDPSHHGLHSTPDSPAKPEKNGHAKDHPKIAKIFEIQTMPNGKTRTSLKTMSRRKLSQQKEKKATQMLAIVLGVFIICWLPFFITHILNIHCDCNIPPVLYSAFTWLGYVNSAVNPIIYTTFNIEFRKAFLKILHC
T1 sequence (P50130 whole entry): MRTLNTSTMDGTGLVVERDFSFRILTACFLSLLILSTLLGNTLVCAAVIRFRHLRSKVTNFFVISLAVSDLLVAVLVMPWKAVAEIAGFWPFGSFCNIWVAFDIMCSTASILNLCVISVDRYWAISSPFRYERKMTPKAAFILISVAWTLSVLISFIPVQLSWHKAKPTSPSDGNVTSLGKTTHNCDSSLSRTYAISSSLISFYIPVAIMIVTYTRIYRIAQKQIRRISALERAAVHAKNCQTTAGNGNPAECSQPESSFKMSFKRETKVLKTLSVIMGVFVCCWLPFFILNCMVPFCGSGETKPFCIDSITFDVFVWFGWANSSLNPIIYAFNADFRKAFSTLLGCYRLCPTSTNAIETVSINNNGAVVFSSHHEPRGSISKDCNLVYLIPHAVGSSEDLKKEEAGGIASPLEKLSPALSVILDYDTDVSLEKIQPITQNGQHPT

Compound	Ki (dopamine D1 receptor)	Ki (human D2long, D2short)	Ki (human D3)	Ki (human D4.4)	Ki (5-HT1A)	Ki (5-HT2)	Ki (alpha-1)	Ki (5-HT2; [1])
Cc1ccc(CNCC2(F)CCN(C(=O)c3cc4cc(Br)ccc4s3)CC2)nc1 [Example E24, 5-Bromobenzo[b]thien-2-yl-[4-fluoro-4-[[(5-methylpyridin-2-ylmothyl)amino]methyl]piporidin-1-yl]-methanone]	> 5 µM	> 5 µM	0.501 to 5 µM	0.501 to 5 µM	0.05 to 0.5 µM	> 5 µM	0.05 to 0.5 µM	–
Cc1ccc(CNCC2(F)CCN(C(=O)c3csc4ccccc34)CC2)nc1 [Example E25, Benzo[b]thien-3-yl-[4-fluoro-4-[[(5-methylpyridin-2-ylmethyl)amino]methyl]piperidin-1-yl]-methanone]	> 5 µM	> 5 µM	> 5 µM	0.05 to 0.5 µM	< 0.05 µM	–	0.501 to 5 µM	> 5 µM
Cc1ccc(CNCC2(F)CCN(C(=O)c3cc4sccc4s3)CC2)nc1 [Example E26, [4-Fluoro-4-[[(5-methylpyridin-2-ylmethyl)amino]methyl]piperidin-1-yl]-thieno[3,2-b]thien-2-yl-mothanone]	> 5 µM	> 5 µM	> 5 µM	0.501 to 5 µM	< 0.05 µM	> 5 µM	0.501 to 5 µM	–
Cc1ccc(CNCC2(F)CCN(C(=O)c3cc4ccsc4s3)CC2)nc1 [Example E27, [4-Fluoro-4-[[(5-methylpyridin-2-ylmethyl)amino]methyl]piperidin-1-yl]-thieno[2,3-b]thien-2-yl-methanone]	> 5 µM	> 5 µM	> 5 µM	0.05 to 0.5 µM	< 0.05 µM	–	0.501 to 5 µM	> 5 µM
Cc1ccc(CNCC2(F)CCN(C(=O)c3sc4sccc4c3Cl)CC2)nc1 [Example E28, 3-Chlorothieno[2,3-b]thion-2-yl-[4-fluoro-4-[[(5-methylpyridin-2-ylmothyl)amino]methyl]piperidin-1-yl]-mothanone]	> 5 µM	0.501 to 5 µM	0.501 to 5 µM	0.05 to 0.5 µM	< 0.05 µM	> 5 µM	0.501 to 5 µM	–
Cc1ccc(CNCC2(F)CCN(C(=O)c3scc4c3CCCC4)CC2)nc1 [Example E29, [4-Fluoro-4-[[(5-methylpyridin-2-ylmethyl)amino]methyl]pipendin-1-yl]-4,5,6,7-tetrahydrobenzo[c]thien-1-yl-methanone]	> 5 µM	> 5 µM	> 5 µM	0.501 to 5 µM	< 0.05 µM	–	0.501 to 5 µM	> 5 µM
Cc1ccc(CNCC2(F)CCN(C(=O)c3sc(Br)c4c3OCCO4)CC2)nc1 [Example E30, 7-Bromo-2,3-dihydrothieno[3,4-b][1,4]dioxin-5-yl-[4-fluoro-4-[[5-methylpyridin-2-ylmethyl)aminolmothyl]piperidin-1-yl]-methanone]	> 5 µM	> 5 µM	0.501 to 5 µM	0.501 to 5 µM	< 0.05 µM	> 5 µM	0.501 to 5 µM	–
Cc1ccc(CNCC2(F)CCN(C(=O)c3ccco3)CC2)nc1 [Example E31, [4-Fluoro-4-[[(5-methylpyridin-2-ylmethyl)amino]methyl]piperidin-1-yl]-furan-2-yl-methanone]	> 5 µM	> 5 µM	> 5 µM	> 5 µM	0.05 to 0.5 µM	–	> 5 µM	> 5 µM
Cc1ccc(CNCC2(F)CCN(C(=O)c3ccoc3)CC2)nc1 [Example E33, [4-Fluoro-4-[[(5-methylpyridin-2-ylmethyl)amino]methyl]piperidin-1-yl]-furan-3-yl-methanone]	> 5 µM	> 5 µM	> 5 µM	> 5 µM	0.05 to 0.5 µM	–	> 5 µM	> 5 µM
Cc1ccc(CNCC2(F)CCN(C(=O)c3coc(Br)c3)CC2)nc1 [Example E34, 5-Bromofuran-3-yl-[4.fluoro-4-[[(5-methylpyridin-2-ylmethyl)amino]methyl]piperidin-1-yl]-methanone]	> 5 µM	> 5 µM	> 5 µM	0.501 to 5 µM	< 0.05 µM	> 5 µM	0.501 to 5 µM	–
Cc1ccc(CNCC2(F)CCN(C(=O)c3cc4ccccc4o3)CC2)nc1 [Example E35, Benzo[b]furan-2-yl-[4-fluoro-4-[[(5-methylpyridin-2-ylmothyl)amino]methyl]piperidin-1-yl]-methanone]	> 5 µM	> 5 µM	> 5 µM	0.501 to 5 µM	0.05 to 0.5 µM	> 5 µM	0.501 to 5 µM	–
Cc1ccc(CNCC2(F)CCN(C(=O)c3cc4ccccn4n3)CC2)nc1 [Example E42]	> 5 µM	> 5 µM	> 5 µM	> 5 µM	0.05 to 0.5 µM	> 5 µM	> 5 µM	–
Cc1ccc(CNCC2(F)CCN(C(=O)c3cnn4ccccc34)CC2)nc1 [Example E43, [4-Fluoro-4-[[(5-methylpyridin-2-ylmethyl)amino]methyl]piperidin-1-yl]-pyrazolo[1,5-a]pyridin-3-yl-methanone]	> 5 µM	> 5 µM	> 5 µM	> 5 µM	0.05 to 0.5 µM	–	0.501 to 5 µM	> 5 µM
[4-Fluoro-4-[[(5-methylpyridin-2-ylmethyl)amino]methyl]piperidin-1-yl]-indol-2-yl-methanone [Example E41]	> 5 µM	> 5 µM	0.501 to 5 µM	0.501 to 5 µM	0.05 to 0.5 µM	–	0.501 to 5 µM	> 5 µM
